Data reported in US20230130766A1 (SALK INSTITUTE FOR BIOLOGICAL STUDIES, priority 2020, published 2023).

Tests used:
Format in all cases: in vivo, nude mice
MIA PaCa-2 cells = assay: MIA PaCa-2 xenografts, ULK inhibitor alone and in combination with trametinib; settings: day 25
Experimental: MIA PaCa-2 cells were injected bilaterally into the flanks nude mice to create tumor xenografts in order to assess the efficacy of Compound 14 in treating pancreatic cancer tumors alone and in combination with trametinib, an MEK inhibitor and current standard of care therapy for the treatment of pancreatic cancer. After letting tumor cells proliferate to the point where tumors had reach ˜300 mm^3 in volume, one cohort of mice was administered 20 mg/kg daily doses of Compound 14, one cohort of mice was administered 30 mg/kg daily doses of Compound 14, one cohort of mice was administered 1 mg/kg daily doses of trametinib, one cohort of mice was administered 1 mg/kg daily doses of trametinib in combination with 20 mg/kg daily doses of Compound 14, one cohort of mice was administered 1 mg/kg daily doses of trametinib in combination with 30 mg/kg daily doses of Compound 14, and the remaining cohort of mice was administered vehicle alone. Treatment and monitoring were continued for 25 days.

[1] = system: ULK1, phosphorylated ATG13; assay: Western blot analysis of MIA PaCa-2 xenograft tumors; settings: MIA PaCa-2 xenograft tumors at end of experiment, 20 mg/kg twice daily
Experimental: MIA PaCa-2 cells were injected bilaterally into the flanks of nude mice to create tumor xenografts in order to assess the efficacy of Compound 14 in treating pancreatic cancer tumors compared to gemcitabine, a current standard of care therapy for pancreatic cancer. After 3 days of letting tumor cells proliferate (at which point tumors were ˜100 mm^3 in volume), administration of gemcitabine or Compound 14 was initiated. One cohort received 20 mg/kg twice daily doses of Compound 14, one cohort received gemcitabine, and the remaining cohort was treated with vehicle. Treatment and monitoring were continued until day 42 post inoculation of tumor cells (30 days of treatment).

A549 cells = assay: A549 xenografts, ULK inhibitor alone and in combination with carboplatin
Experimental: A549 cells (5M cells) were injected bilaterally into the flanks of thirty-six nude mice to create tumor xenografts in order to assess the efficacy of Compound 14 in treating non-small cell lung cancer tumors both alone and in combination with carboplatin, the current standard of care therapy for non-small cell lung cancer. After 11 days of letting tumor cells proliferate (at which point tumors were ˜50 mm^3 in volume), administration of carboplatin, Compound 14, or combinations began. One cohort of six mice received 20 mg/kg twice daily doses of Compound 14 alone, one cohort of six mice received 30 mg/kg twice daily doses of Compound 14 alone, one cohort of six mice received 25 mg/kg doses of carboplatin every three days, one cohort of six mice received 20 mg/kg twice daily doses of Compound 14 in conjunction with 25 mg/kg doses of carboplatin every three days, one cohort of six mice received 30 mg/kg twice daily doses of Compound 14 in conjunction with 25 mg/kg doses of carboplatin every three days, and the remaining six mice were treated with vehicle. Treatment and monitoring was continued until day 53 post inoculation of tumor cells (42 days of treatment).

## CNC(=O)c1ccccc1Nc1nc(Nc2cc(OC)c(OC)c(OC)c2)ncc1Br [Compound 14]
MIA PaCa-2 cells; 20 mg/kg daily alone
  final tumor size (average): ~1000 mm^3
MIA PaCa-2 cells; both combinations: trametinib 1 mg/kg daily with Compound 14 20 or 30 mg/kg daily
  average tumor mass at the end of the study: substantially less tumor mass compared to control and each mono-therapy
[1]
  ULK1 levels in tumor (Western blot): reduced ULK1 levels compared to vehicle treated
  levels of phosphorylated ATG13 in tumor (Western blot): reduced levels of phosphorylated ATG13
[1]; versus vehicle
  total levels of ATG13 in tumor (Western blot): comparable
A549 cells; 20 mg/kg twice daily alone, day 53
  final tumor average volume: ~150 mm^3
A549 cells; 30 mg/kg twice daily alone, 42 days of treatment
  average tumor mass at the end of the study: smallest tumors
A549 cells; 30 mg/kg twice daily alone, day 53
  tumor volume at the end of the study: ~50 mm^3
A549 cells; both combinations: Compound 14 20 or 30 mg/kg twice daily with carboplatin 25 mg/kg every three days, 42 days
  average tumor mass at the end of the study: smallest tumors
A549 cells; both combinations: Compound 14 20 or 30 mg/kg twice daily with carboplatin 25 mg/kg every three days, day 53
  tumor volume at the end of the study: ~50 mm^3
A549 cells; monotherapy: carboplatin 25 mg/kg every three days, Compound 14 20 mg/kg twice daily
  tumor growth compared to the control: markedly reduced growth compared to the control
